According to US11427553B2, “Dihydrooxadiazinones” (Bayer Aktiengesellschaft, priority 2017, dated 2022):

How the values were obtained:
[1] = Assay 7 in vivo pharmacokinetics in non-rodents (dogs); set-up: species or system Beagle dogs; conditions: i.v.
Procedure: Assay 7 In Vivo Pharmacokinetics in Non-Rodents (e.g. Dogs)
For in vivo pharmacokinetic experiments test compounds were administered to non-rodents (e.g. female Beagle dogs) intravenously (i.v.) at doses of 0.1 to 1 mg/kg and intragastrally (i.g.) at doses of 0.3 to 3 mg/kg formulated as solutions using solubilizers such as e.g. PEG400 in well-tolerated amounts and are usually given as short term infusion (15 min).
Blood samples were taken e.g. at 2 min, 8 min, 15 min, 30 min, 45 min, 1 h, 2 h, 4 h, 6 h, 8 h and 24 h after dosing from the vena saphena.
For pharmacokinetics after intragastral administration test compounds were given intragastrally to fasted non-rodents (e.g. dogs). Blood samples were taken e.g. at 5 min, 15 min, 30 min, 45 min, 1 h, 2 h, 4 h, 6 h, 8 h and 24 h after dosing. […] Blood was collected into Lithium-Heparin tubes (Monovetten@, Sarstedt) and centrifuged for 15 min at 3000 rpm. A small aliquot (e.g. 100 μL) from the supernatant (plasma) was taken and precipitated by addition of an aliquot ice cold acetonitrile (e.g. of 400 μL) and frozen at −20° C. over night. Samples were subsequently thawed and centrifuged at 3000 rpm, 4° C. for 20 minutes. Aliquots of the supernatants were taken for analytical testing using an Agilent HPLC-system with LCMS/MS detection. PK parameters were calculated by non-compartmental analysis using a PK calculation software.
PK parameters derived from concentration-time profiles after i.v.: CLplasma: Total plasma clearance of test compound (in L/kg/h); CLblood: Total blood clearance of test compound: CLplasma*Cp/Cb (abbreviation: CLp;) in L/kg/h) with Cp/Cb being the ratio of concentrations in plasma and blood.
PK parameters calculated from concentration time profiles after […].: Cmax: Maximal plasma concentration (in mg/L); Cmaxnorm: Cmax divided by the administered dose (in kg/L); Tmax: Time point at which Cmax was observed (in h). Parameters calculated from both, i.v. and i.g. concentration-time profiles: AUCnorm: Area under the concentration-time curve from t=0 h to infinity (extrapolated) divided by the administered dose (in kg*h/L); AUC(0-tlast)norm: Area under the concentration-time curve from t=0 h to the last time point for which plasma concentrations could be measured divided by the administered dose (in kg*h/L); t1/2: terminal half-life (in h); F: oral bioavailability: AUCnorm after intragastral administration divided by AUCnorm after intravenous administration (in %).

CHL-1 cells = test: Assay 1 cell proliferation measurement, CHL-1; type: cell-based; conditions: Homo sapiens, Melanoma, read-out: Anti-proliferation IC50 [nM] CHL-1
A-2058 cells = test: Assay 1 cell proliferation measurement, A-2058; type: cell-based; conditions: Homo sapiens, A2058; Melanoma; read-out: Anti-proliferation IC50 [nM] A-2058
IGR37 cells = test: Assay 1 cell proliferation measurement (CTG, 72 h), IGR37; type: cell-based; conditions: Homo sapiens, IGR-37, Cell Titer Glo, read-out: IGR37 IC50 [nM] (melanoma)
RVH421 cells = test: Assay 2 cell proliferation measurement, RVH421; type: cell-based; conditions: Homo sapiens, RVH-421, Melanoma, read-out: Anti-proliferation IC50 [nM] RVH421
Procedure: (§1) Cell Proliferation Measurement
(§2) The antiproliferative activity of the compounds of the general formula (I) was examined in vitro in human cancer cells. For this purpose, 500 cells, including HeLa cells, A2058 cells, DU145 cells, HMCB cells, IGR37 cells, NCIH1734 cells, OSRC2 cells, or 750 cells, including CAL51 cells, COL0741 cells, DBTRG05MG cells, DKMG cells, G292CLONEA141B1 cells, GB1 cells, HEL cells, HEL9217 cells, JHUEM1 cells, L3.3 cells, LI7 cells, TE4 cells, or 1000 cells, including 8505C cells, HUT78 cells, NCIH1563 cells, NCIH2122 cells, NCIH2172 cells, RVH421 cells, SKMEL3 cells, or 1500 cells, including C32 cells, HS578T cells, JHOM1 cells, NCIH196 cells, OVKATE cells, were plated in 384-well plates with appropriate growth medium and incubated at 37° C. overnight. After 24 h, the cells on the test plate were treated with the compounds of the general formula (I) as and incubated at 37° C. for 72 h. The compounds were added to the cells by means of an HP D300 digital dispenser in a 10 (or more)-step dilution series. As control, the cells were treated with vehicle (DMSO at 0.3% final concentration). After 72 h, the cells were treated with 20 μl/well of 50% CTG solution in PBS (Promega Cell Titer Glo (catalogue #G755B and G756B)) and incubated at room temperature for 10 min, and luminescence was measured by means of a VICTOR V (Perkin Elmer), in order to determine cell viability at the end of treatment. The percentage effect on cell growth and the IC50 derived therefrom were determined for each test substance using the values from untreated wells (=percent viability). The IC50 values were calculated using a 4-parameter fit.

HeLa cells = test: Assay 2 cell proliferation measurement, HeLa; type: cell-based; conditions: Homo sapiens, Cervical, read-out: Anti-proliferation IC50 [nM] HeLa
Procedure: as §1, §2

SMILES	CLblood dog [1] [mL/min/kg]	IC50 (HeLa cells) [nM]	IC50 (CHL-1 cells) [nM]	IC50 (A-2058 cells) [nM]	IC50 (IGR37 cells) [nM]	IC50 (RVH421 cells) [nM]
O=C1NN=C(c2ccc(-c3ccc(F)cc3)c(C(F)(F)F)c2)CO1 [Example 3, 5-[4′-Fluoro-2-(trifluoromethyl)biphenyl-4-yl]-3,6-dihydro-2H-1,3,4-oxadiazin-2-one]	39.8	–	9	–	–	–
O=C1NN=C(c2ccc(-c3ccc(Cl)cc3)c(C(F)(F)F)c2)CO1 [Example 31, 5-[4′-Chloro-2-(trifluoromethyl)biphenyl-4-yl]-3,6-dihydro-2H-1,3,4-oxadiazin-2-one]	8.17	–	28	51	14	–

The next lines start with results.

CLblood dog [1] [mL/min/kg]	IC50 (HeLa cells) [nM]	SMILES	IC50 (CHL-1 cells) [nM]	IC50 (A-2058 cells) [nM]	IC50 (IGR37 cells) [nM]	IC50 (RVH421 cells) [nM]
8.17	2	C[C@@H]1OC(=O)NN=C1c1ccc(-c2ccc(F)cc2)c(C(F)(F)F)c1 [Example 135, (6S)-5-[4′-Fluoro-2-(trifluoromethyl)biphenyl-4-yl]-6-methyl-3,6-dihydro-2H-1,3,4-oxadiazin-2-one]	–	24	3	140
47.3	2	O=C1NN=C(c2ccc(-c3cnn(C(F)F)c3)c(C(F)(F)F)c2)CO1 [Example 146, 5-{4-[1-(Difluoromethyl)-1H-pyrazol-4-yl]-3-(trifluoromethyl)phenyl}-3,6-dihydro-2H-1,3,4-oxadiazin-2-one]	8	16	2	47
–	5	C[C@@H]1OC(=O)NN=C1c1ccc(-n2ccc(C(F)(F)F)n2)c(C(F)(F)F)c1 [Example 265, (6S)-6-Methyl-5-{3-(trifluoromethyl)-4-[3-(trifluoromethyl)-1H-pyrazol-1-yl]phenyl}-3,6-dihydro-2H-1,3,4-oxadiazin-2-one]	–	–	7	262
